Test results published in PubChem BioAssay (NCI).
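Method: 48-hour compound exposure of cells in 96-well plates, five concentrations, linear interpolation of endpoints. At the GI50, growth is halved. Definition used: TGI = concentration required for complete inhibition of growth.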

Experiments:
Assay in all cases: DTP human tumour cell line panel, 48 h
[1] = system: OVCAR-3 ovarian
[2] = system: SN12C renal
[3] = system: SK-MEL-2 melanoma
[4] = system: SK-MEL-28 melanoma
[5] = system: 786-0 renal
[6] = system: RXF 393 renal
[7] = system: CAKI-1 renal
[8] = system: OVCAR-4 ovarian
[9] = system: NCI-H460 lung
[10] = system: HCT-116 colon

Row | SMILES | GI50 [1] [µM] | TGI [1] [µM] | GI50 [2] [µM] | TGI [2] [µM] | GI50 [3] [µM] | TGI [3] [µM] | GI50 [4] [µM] | TGI [4] [µM] | GI50 [5] [µM] | TGI [5] [µM] | GI50 [6] [µM] | TGI [6] [µM] | GI50 [7] [µM] | TGI [7] [µM] | GI50 [8] [µM] | TGI [8] [µM] | GI50 [9] [µM] | TGI [9] [µM] | GI50 [10] [µM] | TGI [10] [µM]
1 | Cc1nn(-c2ccc(S(=O)(=O)[O-])cc2)c([O-])c1N=[N+](C)c1ccc(-c2ccc(N=Nc3ccc4c(S(=O)(=O)[O-])cc(S(=O)(=O)[O-])c(N)c4c3[O-])c([O-])c2)cc1[O-].[Cu+2].[Cu+2].[Na+] | > 100 | > 100 | > 100 | > 100 | > 100 | > 100 | > 100 | > 100 | > 100 | > 100 | > 100 | > 100 | > 100 | > 100 | > 100 | > 100 | > 100 | > 100 | > 100 | > 100
2 | CCOC(=O)CC1=Nc2ccccc2SC1 | – | > 100 | – | > 100 | – | > 100 | – | 2.73 | – | > 100 | – | > 100 | – | > 100 | – | > 100 | – | > 100 | – | > 100
3 | N#CC1(c2nc3ccccc3o2)C(=O)C(=O)N(C2C3CC4CC(C3)CC2C4)C(=O)C1=O (configuration not stated) | – | > 100 | – | > 100 | – | > 100 | – | > 100 | – | > 100 | – | > 100 | – | > 100 | – | > 100 | – | > 100 | – | > 100
4 | O=C(CSc1nc2ccc([N+](=O)[O-])cc2[nH]1)Nc1ccc(F)c(Cl)c1 | 2 | 10.1 | 2.36 | 10.7 | 2.22 | 6.35 | 2.68 | 12.9 | 2.84 | 11.8 | 2.34 | 7.84 | 1.95 | 7.33 | 1.99 | 17.8 | 2.87 | 11.3 | 2.42 | 10.6
5 | CCOc1ccc(S(=O)(=O)/N=C2\C=C(SCC(=O)O)C(=O)c3ccccc32)cc1 | 1.88 | 12.2 | 2.15 | 4.97 | 2.62 | 5.8 | 4.74 | 16.3 | 17.4 | 36 | 1.8 | 7.23 | 7.76 | 20.8 | 2.16 | 6.31 | 12.4 | 28.2 | 2.67 | 10.3
6 | COc1c(C2CC(=O)Nc3c2cnn3Cc2ccco2)cc2c(c1OC)OCO2 (configuration not stated) | 0.325 | 1.4 | 1.94 | > 100 | 0.421 | > 100 | – | > 100 | 0.917 | > 100 | 0.35 | > 19.7 | 0.517 | > 100 | – | > 100 | 0.401 | > 100 | 0.457 | > 100
7 | C=CC(=O)N[C@H]1C=C(C)c2c(-c3cnc4ccccc4c3)c3c(N)ncnc3n2C1 | 8.27 | 52.2 | 12.9 | 98.2 | 13.4 | 35.2 | 19.3 | 68.6 | 5.14 | 36.8 | 2.68 | 11.7 | 1.82 | 17.6 | 13.5 | > 100 | 18.1 | 72.8 | 13.2 | 34.7
8 | O=C(Nc1nc2ccccc2s1)OCC(F)(F)F | > 100 | > 100 | > 100 | > 100 | > 100 | > 100 | > 100 | > 100 | > 100 | > 100 | > 100 | > 100 | > 100 | > 100 | > 100 | > 100 | > 100 | > 100 | > 100 | > 100
9 | COc1ccc(/C=C/C=C(/C#N)C(N)=S)cc1 | 15.5 | 42.7 | 35.4 | > 100 | 25.2 | 67.7 | 23.8 | 65.7 | 33.3 | > 100 | 14 | 30.1 | 29.6 | > 100 | 27.9 | > 100 | 23.7 | 65.9 | 15.6 | 31
10 | O=C(NNc1nc2c(F)cccc2n2cccc12)c1cnccn1 | 0.454 | 13.6 | 0.602 | 31.7 | 1.4 | 37 | 0.65 | 15.7 | 0.426 | 19.3 | 0.986 | 7.29 | 0.628 | 16.4 | 0.469 | 11 | 0.331 | 11 | 0.214 | 23.7
11 | Brc1cccc(-c2cc(-c3ccc4c(c3)OCCO4)[nH]n2)c1 | 0.718 | 2.27 | 1.47 | 36.8 | 1.74 | 69.2 | 11.2 | 55.5 | 2.51 | 28.4 | 1.77 | 25.7 | 0.953 | 29.8 | 7.79 | 48.5 | 0.877 | 6.07 | 1.13 | 29.4
12 | O=C(Nc1cccc(-n2ccc3c(NC(=O)c4ccccc4)nccc32)c1)c1cccc(C(F)(F)F)c1 | 0.0205 | 0.0463 | 0.0591 | > 59.3 | 0.0547 | 14.3 | 0.0558 | 4.04 | 0.0645 | 1.9 | 0.0187 | 0.0442 | 0.0556 | 3.36 | 0.104 | > 67.7 | 0.0354 | 1.22 | 0.0364 | 1.46
13 | COC1(C(=O)N2Cc3nc(Cl)nc(N[C@H](C)c4cc(N)cc(C(F)(F)F)c4)c3C2)CCOCC1 | 16.3 | 49 | 12.4 | 53.4 | 16.7 | 33.6 | 16.2 | 30.9 | 18.7 | 68.4 | 15.8 | 43.6 | 25.4 | > 100 | 19.8 | 99.2 | 18.7 | 40.9 | 15.2 | 30.4
14 | Cc1ccn2c3c(c(C(=O)O)c2c1)C(=O)c1ccccc1C3=O | 2.9 | > 70.3 | 7.97 | > 100 | > 100 | > 100 | 4.44 | > 100 | > 87.4 | > 100 | 10.4 | > 100 | > 100 | > 100 | 12.6 | > 100 | 1.36 | 3.07 | > 48.3 | > 100
15 | CC(C)(C)OC(=O)NC(Cc1ccccc1)C(=O)OCN1C(=O)C2C3C=CC(C2C1=O)C1C2C(=O)N(COC(=O)C(Cc4ccccc4)NC(=O)OC(C)(C)C)C(=O)C2C31 (configuration not stated) | – | > 100 | – | > 100 | – | 98.5 | – | > 100 | – | > 100 | – | > 64.2 | – | > 100 | – | > 100 | – | > 100 | – | > 88.5
16 | C#Cc1cnc(=O)n(C2CC(O)C(CO)O2)c1 (configuration not stated) | 97 | > 100 | > 100 | > 100 | > 100 | > 100 | > 100 | > 100 | > 100 | > 100 | > 100 | > 100 | > 62.2 | > 100 | > 100 | > 100 | > 78.5 | > 100 | > 100 | > 100
17 | N#CC(=C1SCS1)[N+](=O)[O-] | 1.13 | 3.92 | 4.35 | 18.4 | 6.7 | 20.7 | 3.59 | 15.1 | 3.12 | 14 | 1.63 | 3.83 | 2.14 | 16.2 | 4.79 | 19 | 2.99 | 10.1 | 0.346 | 10.3
18 | O=C(CCN1CCN(c2cnc3ccccc3n2)CC1)c1csc2ccccc12 | 25 | 61.5 | 79.6 | > 100 | > 100 | > 100 | 20 | 42.7 | 28.4 | 79.5 | 18.7 | 49.5 | 18.9 | 35.8 | 28.2 | 92.5 | > 100 | > 100 | 36.2 | > 100
19 | COc1ccc(C(=S)N2CCN(c3cccc(Cl)c3)CC2)cc1 | > 100 | > 100 | > 100 | > 100 | > 100 | > 100 | > 100 | > 100 | > 100 | > 100 | > 100 | > 100 | > 100 | > 100 | > 100 | > 100 | > 100 | > 100 | > 100 | > 100
20 | NC(N)=N/N=C(/c1ccccc1)c1ccc(F)cc1 | 0.227 | 0.621 | 0.817 | 22.2 | 0.429 | 11.3 | 0.528 | 23 | 0.638 | 13.9 | 0.291 | 3.54 | 0.404 | 16.1 | 1.01 | 37.7 | 0.342 | 10.8 | 0.33 | 4.15
21 | CN(C)CC(=O)N1CCC(c2ccc(NC(=O)c3ncc(C#N)[nH]3)c(C3=CCCCC3)c2)CC1 | 15.7 | 29.6 | 2.74 | 16.9 | 6.83 | 20.3 | 2.2 | 4.68 | 3.22 | 13.1 | 3.25 | 14.2 | 3.52 | 16.1 | 10.1 | 23 | 7.83 | 23.4 | 3.97 | 14.1
22 | Cc1nn(-c2ccc(F)cc2)c2ncnc(Nc3ccc(NC(=O)Nc4ccc(Cl)c(C(F)(F)F)c4)cc3)c12 | 2.06 | 5.79 | 2.07 | 5.56 | 2.37 | 5.66 | 2.18 | 5.68 | 1.98 | 5.85 | 1.86 | 5.98 | 1.83 | 4.75 | 2.46 | 7.13 | 2.35 | 6.01 | 1.51 | 5.07
23 | Fc1cccc(COc2ccc(Nc3ncncc3C#Cc3ccccc3)cc2Cl)c1 | > 25 | > 25 | > 25 | > 25 | > 25 | > 25 | > 25 | > 25 | > 25 | > 25 | > 25 | > 25 | 12.5 | > 25 | > 25 | > 25 | > 25 | > 25 | 24.4 | > 25
24 | C[C@@H]1CC[C@@H]2[C@@H]1[C@H](OC(=O)/C=C/c1ccccc1)[C@]1(c3ccccc3)C[C@@H](OC(=O)CO)[C@@]2(C)O1 | 13.3 | 27 | 0.538 | 22.4 | 19.6 | 38.3 | 16.3 | 33.4 | 11.7 | 29.3 | 0.252 | 13.7 | 0.504 | 18.4 | 12.3 | 27.3 | 16.3 | 38.6 | 12.7 | 27.6
25 | N#Cc1c(NC(=O)c2cccc(C(F)(F)F)c2)sc2c1CCC(=O)C2 | 0.418 | 1.52 | 0.851 | 4.05 | 2.3 | 6.35 | 0.526 | 1.92 | 0.716 | 5.85 | 0.391 | 1.45 | 0.287 | 1 | 0.298 | 0.952 | 1.19 | – | 0.336 | 1.56
